Tests used:
MmeI [1] = molecular target: T1, MmeI (Methylophilus methylotrophus, UniProt B2MU09); test: X-ray crystal structure, […] Å (SAD); format: binding; conditions: ternary complex with 29-mer DNA containing TCCGAC; AdoMet site of methyltransferase domain; pH 7.5, 293 K; calcium ions in model
T1 construct: gene mmeIRM; residues 156-906 modelled, endonuclease domain 1-155 disordered; purified as described previously
T1 sequence (B2MU09 1-919): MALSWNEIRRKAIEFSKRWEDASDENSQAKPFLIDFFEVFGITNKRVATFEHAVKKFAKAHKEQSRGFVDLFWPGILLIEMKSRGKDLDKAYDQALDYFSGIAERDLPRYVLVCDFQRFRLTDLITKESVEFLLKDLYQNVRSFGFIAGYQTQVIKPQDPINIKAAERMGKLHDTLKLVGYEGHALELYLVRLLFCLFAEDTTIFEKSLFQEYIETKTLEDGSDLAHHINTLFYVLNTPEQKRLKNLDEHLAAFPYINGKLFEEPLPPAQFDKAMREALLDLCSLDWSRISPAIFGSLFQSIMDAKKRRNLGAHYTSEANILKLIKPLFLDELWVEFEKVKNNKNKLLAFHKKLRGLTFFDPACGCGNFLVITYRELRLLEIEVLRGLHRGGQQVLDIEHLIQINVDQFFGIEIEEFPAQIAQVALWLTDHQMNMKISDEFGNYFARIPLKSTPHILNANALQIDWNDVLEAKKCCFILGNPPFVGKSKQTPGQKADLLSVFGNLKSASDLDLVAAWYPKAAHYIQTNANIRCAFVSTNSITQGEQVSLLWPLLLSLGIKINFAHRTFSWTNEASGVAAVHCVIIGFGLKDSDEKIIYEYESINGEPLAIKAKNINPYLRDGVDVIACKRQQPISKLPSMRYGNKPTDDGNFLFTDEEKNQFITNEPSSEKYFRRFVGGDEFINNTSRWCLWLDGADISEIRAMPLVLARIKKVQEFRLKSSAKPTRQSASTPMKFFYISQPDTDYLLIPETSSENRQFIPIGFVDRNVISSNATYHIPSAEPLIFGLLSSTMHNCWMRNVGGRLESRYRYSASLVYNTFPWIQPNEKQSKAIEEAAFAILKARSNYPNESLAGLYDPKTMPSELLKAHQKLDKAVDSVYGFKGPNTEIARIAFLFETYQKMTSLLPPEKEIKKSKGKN

MmeI [2] = molecular target: T2, MmeI (Methylophilus methylotrophus, UniProt B2MU09 1-919); test: X-ray crystallography (2.6 A); Sinefungin; Ca2+ in model; Crystallization: 20% PEG 4K, 0.1 M Hepes pH 7.5, 0.1 M (NH4)2SO4, 293 K, with Sinefungin; no solution binding assay; conditions: protein: recombinant; blunt
T2 sequence: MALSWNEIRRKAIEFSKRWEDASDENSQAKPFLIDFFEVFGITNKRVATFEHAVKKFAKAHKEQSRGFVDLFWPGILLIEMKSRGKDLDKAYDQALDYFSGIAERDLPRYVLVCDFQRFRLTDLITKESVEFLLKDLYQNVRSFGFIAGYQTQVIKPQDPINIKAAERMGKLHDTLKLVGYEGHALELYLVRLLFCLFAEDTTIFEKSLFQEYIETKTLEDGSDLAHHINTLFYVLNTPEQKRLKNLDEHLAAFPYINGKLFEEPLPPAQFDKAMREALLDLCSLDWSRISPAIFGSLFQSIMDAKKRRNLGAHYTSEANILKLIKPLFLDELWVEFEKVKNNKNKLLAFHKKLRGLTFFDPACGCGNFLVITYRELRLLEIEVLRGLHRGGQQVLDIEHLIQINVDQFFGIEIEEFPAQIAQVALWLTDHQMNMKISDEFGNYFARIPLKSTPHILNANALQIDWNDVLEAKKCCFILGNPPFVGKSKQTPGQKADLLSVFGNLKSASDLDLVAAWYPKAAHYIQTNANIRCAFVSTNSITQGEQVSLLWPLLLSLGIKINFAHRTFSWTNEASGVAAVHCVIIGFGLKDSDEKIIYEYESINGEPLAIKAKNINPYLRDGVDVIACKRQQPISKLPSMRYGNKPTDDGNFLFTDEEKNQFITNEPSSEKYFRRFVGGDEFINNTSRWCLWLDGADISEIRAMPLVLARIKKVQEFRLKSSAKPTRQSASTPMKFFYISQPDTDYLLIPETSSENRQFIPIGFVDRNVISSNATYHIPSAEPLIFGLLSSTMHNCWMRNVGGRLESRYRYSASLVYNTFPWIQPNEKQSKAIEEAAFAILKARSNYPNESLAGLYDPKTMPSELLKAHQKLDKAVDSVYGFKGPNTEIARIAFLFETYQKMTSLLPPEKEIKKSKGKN

Nc1ncnc2c1ncn2[C@@H]1O[C@H](C[C@@H](N)CC[C@H](N)C(=O)O)[C@@H](O)[C@H]1O [Sinefungin]
X-ray crystal structure, 2.6 Å (SAD) (MmeI [1]): The SAM analog Sinefungin is tightly bound within the MTase domain via extensive hydrogen bonding

B1: 29-mer MmeI site duplex, 5-bromouracil substituted (dsDNA)
DNA 1: TATCCGACAUAACGCUAGUCACUAGCUUC
DNA 2: GAAGCUAGUGACUAGCGUTAUGTCGGATA
modifications: U = 5-bromouracil (replaces several thymines outside the recognition site) in both strands
binding result (MmeI [2]): binds
